Where a chain is given by its changes, count along the chain named.
Tests used:
Format in all cases: biochemical
[1] = target: T1, MKP3 R89A (Homo sapiens, UniProt Q16828, R89A); test: Phosphatase activity of MKP3 mutant toward pNPP with ERK2; conditions: 1 µM enzyme, 1 µM ERK2, 8 mM pNPP, 2.5 μM BCI
T1 construct: MKP3(1–381) (MKP3^FL); made in house; host or cells: Escherichia coli BL21(DE3)
T1 sequence (Q16828 1-381 R89A): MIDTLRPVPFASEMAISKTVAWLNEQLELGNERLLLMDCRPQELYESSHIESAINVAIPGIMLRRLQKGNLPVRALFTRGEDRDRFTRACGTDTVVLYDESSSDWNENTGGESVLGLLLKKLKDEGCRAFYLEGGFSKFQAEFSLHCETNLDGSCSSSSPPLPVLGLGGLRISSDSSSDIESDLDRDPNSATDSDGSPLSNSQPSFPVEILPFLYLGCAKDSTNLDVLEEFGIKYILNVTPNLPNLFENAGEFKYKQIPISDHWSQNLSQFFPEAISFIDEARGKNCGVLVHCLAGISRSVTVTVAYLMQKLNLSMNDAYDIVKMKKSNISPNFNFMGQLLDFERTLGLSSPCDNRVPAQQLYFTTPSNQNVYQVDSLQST
Protocol: (§1) The phosphatase activity of MKP3 toward pNPP was measured using continuous spectrophotometric assays, either in the absence or the presence of ERK2 at a 1:1 M ratio with MKP3. Experiments were conducted at 25 °C in a reaction mixture with a total volume of 1.8 ml, containing 50 mM Mops (pH 7.0), 100 mM NaCl, and 0.1 mM EDTA. MKP3 (1 μM) was preincubated with varying concentrations of the inhibitor BCI for 5 min before initiating the reaction by adding pNPP at concentrations ranging from 0 to 14 mM. Continuous absorbance changes were recorded using a PerkinElmer LAMBDA 45 spectrophotometer equipped with a magnetic stirrer in the cuvette holder. The production of p-nitrophenol was monitored at 410 nm using an extinction coefficient of 18,000 M^-1 cm^-1.
(§2) Figure S2. Inhibition of full-length MKP3 mutant activity by BCI. The phosphatase activities (v0) of full-length MKP3 and its mutants (E81G, R83G, R85G, R87G, and R89A) at 1 µM concentration were measured using continuous spectrophotometric assays with 8 mM pNPP as the substrate, in the presence of ERK2 (1 µM), either without or with 2.5 μM BCI. Data are presented as mean ± SD (n = 3). Reactions were performed at 25 °C in a total volume of 1.8 mL, in a buffer containing 50 mM MOPS (pH 7.0), 100 mM NaCl, and 0.1 mM EDTA.

[2] = target: T2, MKP3 R83G (Homo sapiens, UniProt Q16828, R83G); test: as above; conditions: 1 µM enzyme, 1 µM ERK2, 8 mM pNPP, 2.5 μM BCI
T2 construct: MKP3(1–381) (MKP3^FL); made in house; host or cells: Escherichia coli BL21(DE3)
T2 sequence (Q16828 1-381 R83G): T1 sequence (Q16828 1-381 R89A) with R83G, A89R
Protocol: as §1, §2

[3] = target: T3, MKP3^CD (Homo sapiens, UniProt Q16828); test: Phosphatase activity toward pERK2 (coupled MESG assay); conditions: initial velocities in absence and presence of BCI, n = 3
T3 construct: ^15N-labeled MKP3^1–154, MKP3^14–152, MKP3^204–350; made in house; host or cells: Escherichia coli BL21(DE3)
T3 sequence (Q16828 204-350): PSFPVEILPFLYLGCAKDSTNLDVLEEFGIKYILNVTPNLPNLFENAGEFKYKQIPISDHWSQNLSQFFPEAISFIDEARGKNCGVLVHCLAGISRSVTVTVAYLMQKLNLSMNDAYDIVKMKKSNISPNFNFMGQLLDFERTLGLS
Protocol: (§3) The phosphatase activity of MKP3 (0.5 μM) toward pERK2 (0.5 μM) was measured using a coupled assay, in which phosphate released from the substrate was transferred to 7-methyl-6-thioguanosine (MESG) by purine nucleoside phosphorylase. Assays were performed in a reaction mixture containing 50 mM Mops (pH 7.0), 100 mM NaCl, 0.1 mM EDTA, 100 μM MESG, 4 μM purine nucleoside phosphorylase, and varying concentrations of BCI, as indicated in Figure 5. Dephosphorylation was monitored by measuring absorbance changes at 360 nm, reflecting the conversion of MESG to 7-methyl-6-thioguanine in the presence of inorganic phosphate. Phosphate quantification was performed using an extinction coefficient of 11,200 M^-1 cm^-1 at 360 nm.
(§4) Stock solutions of BCI (dissolved in DMSO) at different concentrations were prepared to maintain a constant DMSO concentration across all BCI concentrations in the phosphatase inhibition assays, thereby eliminating potential effects of varying DMSO levels on detection. Initial reaction rates were determined from the linear slope of progress curves, and the data were analyzed using nonlinear regression. Kinetic parameters (kcat and Km) were obtained by fitting the data to the Michaelis–Menten equation: v0 = kcat[E][S]/(Km + [S]). […]

[4] = target: T4, MKP3^FL (Homo sapiens, UniProt Q16828); test: as above; conditions: BCI at concentration 50 times that of pERK2
T4 construct: MKP3(1–381) (MKP3^FL); made in house; host or cells: Escherichia coli BL21(DE3)
T4 sequence (Q16828 1-381): T1 sequence (Q16828 1-381 R89A) with A89R
Protocol: as §3, §4

SMILES: O=C1/C(=C/c2ccccc2)C(NC2CCCCC2)c2ccccc21 (stereo not shown) [BCI, (E)-2-benzylidene-3-(cyclohexylamino)-2,3-dihydro-1H-inden-1-one]
- enzymatic activity upon BCI addition compared with MKP3^WT [1]: higher enzymatic activity than WT MKP3
- enzymatic activity upon BCI addition compared with MKP3^WT [2]: higher enzymatic activity than WT MKP3
- effect on MKP3^CD activity toward pERK2 [3]: no effect
- extension of pERK2 dephosphorylation time [4]: more than 20 fold

Source: article PMC12444472, “BCI inhibits MKP3 by targeting the kinase-binding domain and disrupting ERK2 interaction” (The Journal of Biological Chemistry, 2025)
